Data published in patent publication US20250262308A1, “Compositions and Methods for Modulating Dopamine Receptor Activity” (The Regents of the University of California, priority 2022, published 2025).

Legend:
D2R = target: T1, D2R (Homo sapiens, UniProt P14416); assay: GIRK activation assay, whole-cell patch clamp, HEK293T co-transfected with M, D2R and GIRK1 (F137S); assay type: cell-based; conditions: for photo-agonism of D2R (GIRK inward current): P tethered to M, compared with saturating dopamine (1 μM)
T1 construct: expressed in transfected cells; host or cells: HEK293T
Procedure: D2R photo-activation was evaluated in a G protein-activated inwardly rectifying K^+ channel (GIRK) activation assay. The M anchoring protein was re-designed by substituting the SNAP-tag at its external N-terminal with a HALO-tag (FIG. 3A). HEK293T were co-transfected with M, D2R and the homotetramerizing mutant of GIRK1 (F137S), making it possible to detect D2R activation as Gi/o-dependent GIRK inward-current at high external K^+ and negative holding potential. Transfected cells were patch clamped in whole-cell configuration and alternately irradiated with 440 nm light or perfused with a saturating (1 μM) concentration of dopamine to elicit maximal D2R activation.
(A) Schematic representation of D2R activation by MP-D2ago in response to light. (B, C) Representative traces of MP-D2ago with one (1×; B) or two (2×; C) branch points. (D) Summary of the maximal photo-activation of D2R by MP-D2ago relative to a saturating concentration of DA (1 μM). […] Summary of the activation and deactivation kinetics (E) and light sensitivity (F) of D2R in response to 1× or 2×MP-D2ago.
To complement our cell-targeted D2R photo-agonist, a tethered photo-antagonist for D2R was designed. The same photoswitch architecture was employed; however, in this case, one of two substituted phenyl piperazines was used as a head group (FIG. 5A). Two variant phenyl piperazines, 2,3-dichloro- and 2-methoxy-phenylpiperazine, were chosen as the core scaffold. To each of these, we appended a 3-carbon (C3) linker followed by the same PEG- and HALO substrate employed in the synthesis of P-D2ago, thereby generating potential photo-antagonists. […] A 4-carbon linker at this position was tested.
FIG. 5A-5G: Evaluation of phenylpiperazine-based MPs of D2R in HEK293T cells. A) Chemical structures of P-D2 constructs used to label the M protein. B) Schematic representation MP-D2block,C3 and MP-D2pa,C3 activity under light irradiation. CD) Patch clamp electrophysiology traces of tethered partial agonists. E) Schematic representation of dopamine blocking by MP-D2block under light irradiation. F,G) Patch clamp electrophysiology traces of tethered D2 antagonist.

[1] = UV/Vis photophysical characterization of the photoswitch; assay type: physicochemical
Procedure: FIG. 2A-2E. Synthesis of P-D2ago and photophysical characterization. A) Chemical Synthesis of P-D2ago. B) UV Vis absorbance spectra of P-D2ago (20 μM in DMSO, 24° C.) in the dark and under 415 nm irradiation. C) Wavelength scan for P-D2ago (20 μM, DMSO, 24° C.). Each wavelength is applied for 2 minutes. […] E) Thermal relaxation of P-D2ago in DMSO after 1 minute irradiation with 415 nm at 37° C. F) Synthesis of branched, photoswitchable amino indenyl dimer P-D2ago-2X.
UV Vis data were analyzed and plotted using […] Prism. Irradiation was achieved from the top of the cuvette through a fiber-optic cable. […] Absorbance (reported as Abs, in arbitrary units) was measured at 420 nm over time. Thermal Relaxation was measured after 1 min irradiation with 415 nm at 10 or 20 μM, and subsequently absorption increase was detected at 420 nm. The relaxation half-live of the cis-isomer was determined by curve fitting, using exponential one-phase decay in […] Prism. Photostationary states were determined by pre-irradiation of samples (20 uM, DMSO) for 10 min at the respective wavelengths. Samples for LCMS separation were prepared under red-light conditions in amber vials and immediately subjected to LCMS.
FIG. 8A-8E: Photophysical Characterization of P-D1block(24) A) UV Vis absorption spectra of dark-adapted (100% trans) P-D1block(24) in DMSO (20 μM), and after preirradiation with 370/460 nm for 10 min. […] C) Photostationary state (PSS) of P-D1block(24) in DMSO (20 μM, 24° C.), after preirradiation with 360/420 nm for 10 min. Detection of PSS was achieved by LCMS by separation of isomers and integration of Abs at the isosbestic point of cis- and trans-isomers at the respective elution solvent mixtures. D, E) Thermal relaxation of P-D1block(24) in 10% DMSO in PBS and 100% DMSO at 37° C., detection of Abs at 340 nm after pre-irradiation of the samples for 10 min at 360 nm.

T1 sequence (P14416 whole entry): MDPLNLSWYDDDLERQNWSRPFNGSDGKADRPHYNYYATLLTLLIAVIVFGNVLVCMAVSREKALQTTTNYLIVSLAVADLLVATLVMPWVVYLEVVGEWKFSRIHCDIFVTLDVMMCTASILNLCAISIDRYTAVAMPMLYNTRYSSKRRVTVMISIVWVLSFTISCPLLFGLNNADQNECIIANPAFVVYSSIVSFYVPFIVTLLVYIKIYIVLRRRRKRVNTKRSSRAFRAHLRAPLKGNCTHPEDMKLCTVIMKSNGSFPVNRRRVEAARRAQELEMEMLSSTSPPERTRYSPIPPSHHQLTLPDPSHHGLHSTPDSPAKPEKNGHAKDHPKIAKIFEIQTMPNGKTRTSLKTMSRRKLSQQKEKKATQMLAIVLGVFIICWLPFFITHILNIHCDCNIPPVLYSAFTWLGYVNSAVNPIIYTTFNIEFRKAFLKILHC

SMILES	photo-agonism of D2R (GIRK inward current) (D2R; 440 nm light)	photo-antagonism of D2R activation by dopamine (D2R; tethered to M, 440 nm light, 1 uM dopamine)	sensitivity to light, greater than P-D2ago (D2R; tethered to M)	activation kinetics, faster than P-D2ago (D2R; tethered to M, 440 nm light)	reversible switching ([1]; 20 μM in DMSO, alternating irradiation)	thermal back-relaxation in aqueous environment ([1]; 10% DMSO in PBS)	absorption maximum ([1]; UV/Vis, 20 μM in DMSO, 24° C.)	wavelength of maximal switching into the cis-form (maximum PSS) ([1]; wavelength scan, 20 μM, DMSO, 24° C.)
COc1ccccc1N1CCNCC1 [2-methoxy-phenylpiperazine]	very weak partial agonism	very weak antagonism						
CCCN(CCCCNc1ccc(/N=N/c2ccc(NC(=O)CCOCCOCCOCCOCCOCCOCCOCCOCCOCCOCCOCCOCCOCCOCCOCCOCCOCCOCCOCCOCCOCCOCCOCCOCCNC(=O)CCC(NC(=O)CCC(=O)NCCOCCOCCCCCCCl)C(=O)NCCOCCOCCOCCOCCOCCOCCOCCOCCOCCOCCOCCOCCOCCOCCOCCOCCOCCOCCOCCOCCOCCOCCOCCOCCC(=O)Nc3ccc(/N=N/c4ccc(NCCCCN(CCC)C5Cc6ccccc6C5)cc4)cc3)cc2)cc1)C1Cc2ccccc2C1 (stereo not shown) [2X-P-D2ago]	same maximal activation		~5 fold	~2 fold				
CCCN(CCCCNc1ccc(/N=N/c2ccc(NC(=O)CCOCCOCCOCCOCCOCCOCCOCCOCCOCCOCCOCCOCCOCCOCCOCCOCCOCCOCCOCCOCCOCCOCCOCCOCCNC(=O)CCC(=O)NCCOCCOCCCCCCCl)cc2)cc1)C1Cc2ccccc2C1 [P-D2ago]	full photo-agonism				without fatigue	exceeds the detection limit	424 nm	440 nm
